Values of other authors in US8524697B2, “C20-C21 substituted glucocorticoid receptor agonists” (Merck Sharp & Dohme Corp., priority 2007, dated 2013).

Molecular target: SYK kinase (Homo sapiens, UniProt P43405)
Details: symptoms associated with chronic nasal congestion

absolute difference over placebo: 9%
improvement from baseline measurements (prior to drug initiation): up to 38%
relative improvement over placebo: greater than 20%
SMILES: Oc1cccc(Nc2ncc(F)c(Nc3cccc(O)c3)n2)c1 [Example R112]
